Each structure is given as a SMILES string.

T1 sequence (O00329 whole entry): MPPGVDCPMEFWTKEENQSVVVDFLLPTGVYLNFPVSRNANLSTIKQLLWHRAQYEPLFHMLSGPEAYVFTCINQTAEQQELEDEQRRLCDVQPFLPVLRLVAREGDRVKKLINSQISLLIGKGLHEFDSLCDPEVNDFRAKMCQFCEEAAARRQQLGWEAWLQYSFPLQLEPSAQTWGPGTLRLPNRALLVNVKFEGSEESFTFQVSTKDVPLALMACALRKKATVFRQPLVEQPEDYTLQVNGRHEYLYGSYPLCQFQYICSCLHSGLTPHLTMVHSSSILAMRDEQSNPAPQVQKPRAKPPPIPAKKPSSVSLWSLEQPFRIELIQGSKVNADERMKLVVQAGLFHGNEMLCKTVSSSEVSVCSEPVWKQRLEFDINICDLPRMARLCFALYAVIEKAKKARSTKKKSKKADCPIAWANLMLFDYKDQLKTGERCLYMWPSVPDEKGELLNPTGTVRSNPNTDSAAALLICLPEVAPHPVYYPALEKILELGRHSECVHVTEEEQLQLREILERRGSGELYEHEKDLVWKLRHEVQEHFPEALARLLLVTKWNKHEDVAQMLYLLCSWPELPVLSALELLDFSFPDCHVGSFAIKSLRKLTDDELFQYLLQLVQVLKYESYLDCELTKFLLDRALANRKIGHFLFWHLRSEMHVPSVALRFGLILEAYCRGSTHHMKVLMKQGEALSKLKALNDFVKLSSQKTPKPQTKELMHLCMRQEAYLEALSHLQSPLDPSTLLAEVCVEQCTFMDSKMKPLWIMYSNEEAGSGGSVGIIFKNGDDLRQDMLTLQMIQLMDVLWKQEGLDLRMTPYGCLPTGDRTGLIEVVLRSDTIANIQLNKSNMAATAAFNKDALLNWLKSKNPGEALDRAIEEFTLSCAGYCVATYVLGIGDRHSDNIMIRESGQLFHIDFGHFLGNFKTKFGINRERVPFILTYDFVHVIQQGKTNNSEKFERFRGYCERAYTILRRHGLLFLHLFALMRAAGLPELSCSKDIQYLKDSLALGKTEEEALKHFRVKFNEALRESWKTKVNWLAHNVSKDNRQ
T1 sequence (P27986 whole entry partner): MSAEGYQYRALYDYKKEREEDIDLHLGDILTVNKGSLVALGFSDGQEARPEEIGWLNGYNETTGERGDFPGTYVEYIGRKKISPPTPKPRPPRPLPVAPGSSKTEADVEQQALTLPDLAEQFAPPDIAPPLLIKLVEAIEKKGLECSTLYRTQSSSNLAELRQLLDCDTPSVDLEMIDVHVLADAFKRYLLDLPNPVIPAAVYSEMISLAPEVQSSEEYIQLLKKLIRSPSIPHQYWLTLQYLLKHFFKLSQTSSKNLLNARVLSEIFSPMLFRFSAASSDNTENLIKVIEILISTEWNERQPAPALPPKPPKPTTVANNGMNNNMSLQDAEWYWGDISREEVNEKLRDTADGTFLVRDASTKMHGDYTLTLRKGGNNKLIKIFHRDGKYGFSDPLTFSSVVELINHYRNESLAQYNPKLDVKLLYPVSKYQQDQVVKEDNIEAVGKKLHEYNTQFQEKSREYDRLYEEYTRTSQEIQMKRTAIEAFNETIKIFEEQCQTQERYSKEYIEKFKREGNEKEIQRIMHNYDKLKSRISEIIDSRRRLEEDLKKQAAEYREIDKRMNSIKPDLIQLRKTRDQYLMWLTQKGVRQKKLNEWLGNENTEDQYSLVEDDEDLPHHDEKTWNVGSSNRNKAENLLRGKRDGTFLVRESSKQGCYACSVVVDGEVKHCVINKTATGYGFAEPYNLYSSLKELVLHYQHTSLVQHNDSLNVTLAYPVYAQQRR

The first assay addresses T1, PI3Kδ (Homo sapiens, UniProt O00329).
T1 construct: The protein is full length and co-expressed with untagged PIK3R1; GST; purchased Invitrogen PV5274
Put plainly: PI3Kδ inhibition, modified PIK3CD Adapta TR-FRET assay. It is filed as biochemical. Particulars: recombinant GST-tagged full length PIK3CD co-expressed with PIK3R1 (p85α); 2 μM ATP, 50 μM PIP2. Summed up:
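Full-length GST-PIK3CD co-expressed with p85α was run in 50 mM HEPES pH 7.5, 3 mM MgCl2, 1 mM EGTA, 100 mM NaCl, 0.03% CHAPS, 2 mM DTT, 1% DMSO, with 12-point compound titrations. Reactions at room temperature were started with solution containing 2 μM ATP and 50 μM PIP2. ADP was detected by Adapta TR-FRET (620 nm-ratioed).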
A general note: In TR-FRET formats the signal depends on donor and acceptor labels being close together.
Consider `Cc1ccc([C@H](C)N2C(=O)[C@H]3COCCN3c3nc(-c4cccc5[nH]ccc45)ncc32)cc1` [Example 154, (R)-2-(1H-indol-4-yl)-5-((5)-1-p-tolylethyl)-6a,7,9,10-tetrahydro-[1,4]oxazino[3,4-h]pteridin-6(5H)-one], for which the “PI3Kδ Inhibition (pIC50)” value is reported as 6.9.

Staying with this assay, now noted: recombinant GST-tagged full length PIK3CD co-expressed with PIK3R1 (p85α); 2 μM ATP, 50 μM PIP2; read-out: PI3Kδ Inhibition (pIC50) (converted).
On to `CCc1nnc(CN2CC3COCCN3c3nc(-c4cccc5[nH]ccc45)ncc32)o1` (stereo not drawn) [Example 35, 5-((5-ethyl-1,3,4-oxadiazol-2-yl)methyl)-2-(1H-indol-4-yl)-5,6,6a,7,9,10-hexahydro-[1,4]oxazino[3,4-h]pteridine], for which the IC50 was 10 nM.

With `COc1ccc2c(-c3ncc4c(n3)N3CCOCC3CN4)c[nH]c2c1` (stereo not drawn) [Example 8, 2-(6-methoxy-1H-indol-3-yl)-5,6,6a,7,9,10-hexahydro-[1,4]oxazino[3,4-h]pteridine], the IC50 is more than 10000 nM.

With `CS(=O)(=O)c1ccc(CN2C(=O)C3COCCN3c3nc(-c4ccc(C(N)=O)cc4)ncc32)cc1` (stereo not drawn) [Example 107, 4-(5-(4-(methylsulfonyl)benzyl)-6-oxo-5,6,6a,7,9,10-hexahydro-[1,4]oxazino[3,4-h]pteridin-2-yl)benzamide], the IC50 is 398 nM.

For `Cn1cc(CN2C[C@@H]3COCCN3c3nc(-c4cccc5[nH]ccc45)ncc32)cn1` [Example 182, (R)-2-(1H-indol-4-yl)-5-((1-methyl-1H-pyrazol-4-yl)methyl)-5,6,6a,7,9,10-hexahydro-[1,4]oxazino[3,4-h]pteridine], the IC50 was 15.8 nM.

For the molecule `CCOC(=O)c1cccc(N2C[C@@H]3COCCN3c3nc(-c4cccc5[nH]ccc45)ncc32)c1` [Example 190, (R)-ethyl 3-(2-(1H-indol-4-yl)-6a,7,9,10-tetrahydro-[1,4]oxazino[3,4-h]pteridin-5(6H)-yl)benzoate], the IC50 is 25.1 nM.

Regarding `CCc1nnc(CN2C[C@@H]3COCCN3c3nc(-c4cccc5[nH]ccc45)ncc32)o1` [Example 31, (R)-5-((5-ethyl-1,3,4-oxadiazol-2-yl)methyl)-2-(1H-indol-4-yl)-5,6,6a,7,9,10-hexahydro-[1,4]oxazino[3,4-h]pteridine], the IC50 was 7.94 nM.

For the molecule `c1ccc(OCCN2CC3COCCN3c3nc(-c4cccc5[nH]ccc45)ncc32)cc1` (stereo not drawn) [Example 32, 2-(1H-indol-4-yl)-5-(2-phenoxyethyl)-5,6,6a,7,9,10-hexahydro-[1,4]oxazino[3,4-h]pteridine], the IC50 is 79.4 nM.

On to `O=C(CN1C[C@@H]2COCCN2c2nc(-c3ccc(CO)s3)ncc21)NCC1CCOCC1` [Example 226, (R)-2-(2-(5-(hydroxymethyl)thiophen-2-yl)-6a,7,9,10-tetrahydro-[1,4]oxazino[3,4-h]pteridin-5(6H)-yl)-N-((tetrahydro-2H-pyran-4-yl)methyl)acetamide], for which the IC50 is 501 nM.

With `CC(C)(O)CCCN1C[C@@H]2COCCN2c2nc(-c3cccc4[nH]ccc34)ncc21` [Example 227, (R)-5-(2-(1H-indol-4-yl)-6a,7,9,10-tetrahydro-[1,4]oxazino[3,4-h]pteridin-5(6H)-yl)-2-methylpentan-2-ol], the IC50 was 15.8 nM.

As for `O=C(CN1C[C@@H]2COCCN2c2nc(-c3ccsc3)ncc21)NCC1CCOCC1` [Example 223, (R)—N-((tetrahydro-2H-pyran-4-yl)methyl)-2-(2-(thiophen-3-yl)-6a,7,9,10-tetrahydro-[1,4]oxazino[3,4-h]pteridin-5(6H)-yl)acetamide], the IC50 was 794 nM.

With `CCOC(=O)c1cncc(-c2ncc3c(n2)N2CCOCC2C(=O)N3Cc2ccc(S(C)(=O)=O)cc2)c1` (stereo not drawn) [Example 105, ethyl 5-(5-(4-(methylsulfonyl)benzyl)-6-oxo-5,6,6a,7,9,10-hexahydro-[1,4]oxazino[3,4-h]pteridin-2-yl)nicotinate], the IC50 was 7940 nM.

On to `CCc1nnc(CN2C[C@@H]3COCCN3c3nc(-c4cccc(CO)c4)ncc32)o1` [Example 172, (R)-(3-(5-((5-ethyl-1,3,4-oxadiazol-2-yl)methyl)-5,6,6a,7,9,10-hexahydro-[1,4]oxazino[3,4-h]pteridin-2-yl)phenyl)methanol], for which the IC50 is 5.01 nM.

As to `O=C(O)CN1C[C@@H]2COCCN2c2nc(-c3cccc4[nH]ccc34)ncc21` [Example 69, (R)-2-(2-(1H-indol-4-yl)-6a,7,9,10-tetrahydro-[1,4]oxazino[3,4-h]pteridin-5(6H)-yl)acetic acid], the IC50 was 2510 nM.

In the case of `c1cc(-c2ncc3c(n2)N2CCOCC2CN3Cc2nnc(C3CC3)o2)c2cc[nH]c2c1` (stereo not drawn) [Example 81, 5-((5-cyclopropyl-1,3,4-oxadiazol-2-yl)methyl)-2-(1H-indol-4-yl)-5,6,6a,7,9,10-hexahydro-[1,4]oxazino[3,4-h]pteridine], the IC50 was 15.8 nM.

Regarding `CNC(=O)Nc1ccc(-c2ncc3c(n2)N2CCOCC2CN3Cc2ccccc2)cc1` (stereo not drawn) [Example 61, 1-(4-(5-benzyl-5,6,6a,7,9,10-hexahydro-[1,4]oxazino[3,4-h]pteridin-2-yl)phenyl)-3-methylurea], the IC50 is 631 nM.

Turning to `c1cc(-c2ncc3c(n2)N2CCOCC2CN3CC2CC2)c2cc[nH]c2c1` (stereo not drawn) [Example 3, 5-(cyclopropylmethyl)-2-(1H-indol-4-yl)-5,6,6a,7,9,10-hexahydro-[1,4]oxazino[3,4-h]pteridine], the IC50 was 5.01 nM.

As to `CC(C)NS(=O)(=O)c1cccc(-c2ncc3c(n2)N2CCOCC2C(=O)N3Cc2ccc(S(C)(=O)=O)cc2)c1` (stereo not drawn) [Example 98, N-isopropyl-3-(5-(4-(methylsulfonyl)benzyl)-6-oxo-5,6,6a,7,9,10-hexahydro-[1,4]oxazino[3,4-h]pteridin-2-yl)benzenesulfonamide], the IC50 is 6310 nM.

Regarding `N[C@H]1CC[C@H](CN2C[C@@H]3COCCN3c3nc(-c4cccc5[nH]ccc45)ncc32)CC1` [Example 197], the IC50 is 3160 nM.

For `CS(=O)(=O)c1ccc(CN2C(=O)C3COCCN3c3nc(-c4ccc5[nH]ncc5c4)ncc32)cc1` (stereo not drawn) [Example 114, 2-(1H-indazol-5-yl)-5-(4-(methylsulfonyl)benzyl)-6a,7,9,10-tetrahydro-[1,4]oxazino[3,4-h]pteridin-6(5H)-one], the IC50 is 200 nM.

Consider `CNC(=O)Nc1ccc(-c2ncc3c(n2)N2CCOC[C@@H]2C(=O)N3C2CCOCC2)cc1` [Example 159, (R)-1-methyl-3-(4-(6-oxo-5-(tetrahydro-2H-pyran-4-yl)-5,6,6a,7,9,10-hexahydro-[1,4]oxazino[3,4-h]pteridin-2-yl)phenyl)urea], for which the IC50 is 2.51 nM.

For `CS(=O)(=O)c1ccc(CN2CC3COCCN3c3nc(-c4cccc5[nH]ccc45)ncc32)cc1` (stereo not drawn) [Example 19, 2-(1H-indol-4-yl)-5-(4-(methylsulfonyl)benzyl)-5,6,6a,7,9,10-hexahydro-[1,4]oxazino[3,4-h]pteridine], the IC50 is 10 nM.

For `CC(C)(O)CCN1C[C@@H]2COCCN2c2nc(-c3cccc(CO)c3)ncc21` [Example 171, (R)-4-(2-(3-(hydroxymethyl)phenyl)-6a,7,9,10-tetrahydro-[1,4]oxazino[3,4-h]pteridin-5(6H)-yl)-2-methylbutan-2-ol], the IC50 is 3.16 nM.

`COc1cccc(CC(=O)N2CC3COCCN3c3nc(-c4cccc5[nH]ccc45)ncc32)c1` (stereo not drawn) [Example 50, 1-(2-(1H-indol-4-yl)-6a,7,9,10-tetrahydro-[1,4]oxazino[3,4-h]pteridin-5(6H)-yl)-2-(3-methoxyphenyl)ethanone]: the IC50 is 316 nM.

Values taken from patent US8791107B2, “N-substituted oxazinopteridines and oxazinopteridinones” (Takeda Pharmaceutical Company Limited, priority 2011, dated 2014).
